Here are results for three molecules from patent US7790896B2, “RNA-selective probes for live cell imaging of nuclear structure and function” (New York University, priority 2006, dated 2010).

For one data set, the system named is 3T3 cells. The experiment in a line: Cytotoxicity test, MTS assay. Type of data set: cell-based. The method, then:
Dye DMSO stock solutions were diluted by fresh medium into four desired concentrations ([…], 13.5 μM, 10 μM and 5 μM). Cells were cultured in 96-well plate for 12 hours before experiments. The cell medium was then exchanged with different concentrations of dye medium solutions. Cells were incubated at 37° C. in 5% CO2 for 5, 15, or 24 hours before viability by MTS assay was measured. As for the MTS assay, briefly, 3-(4,5-dimethylthiazol-2-yl)-5-(3-carboxymethoxyphenyl)-2-(4-sulfophenyl)-2H-tetrazolium (MTS) and phenazine methosulfate (PMS) were mixed at a ratio of 20:1 right before the experiments. The cell dye medium solution was exchanged with 80 μL of fresh medium followed by the addition of 20 μL MTS/PMS solution to each well. 100 μM hydrogen peroxide was used as positive control. The cell plates were then incubated at 37° C. in 5% CO2 for 2 hours. Absorbance was measured at 490 nm. The absorbance measured for an untreated cell population under the same experimental conditions was used as the reference point to establish 100% cell viability. Duplicated experiments have been tested.
(20 μM, 13.5 μM, 10 μM, and 5 μM) in A549 and 3T3 cells and the cytotoxicity was measured using standard MTS assay after 5, 15, or 24 hours incubation (FIG. 5A). Generally, there was no toxicity (defined by greater than 50% cell death) associated with any of the dyes at the working concentration (5 μM) after 24 hours incubation. In A549 cell, all three dyes were non-toxic after 24 hours incubation at all concentrations. In 3T3 cells, E144 was non-toxic, but 20 μM of E36 was toxic after 24 hours incubation and 20 μM F22 was toxic after 15 hours incubation. Since the compounds bind to RNA, it is not surprising to see some signs of toxicity at higher concentrations, especially after one doubling period (approximately 22 hours for A549 cells and 20-25 hours for 3T3 cells). […] Additional studies are required to determine if the compounds perturb nucleolar dynamics throughout the cells cycle.

In data set [1] the test system is RNA (16S- and 23S-ribosomal from E. coli). Description: Fluorescent properties of dye-RNA solution. Particulars: for EM (emission λmax), RNA / EX (excitation λmax), RNA: TE buffer pH 7.5, dye 5 μM; for EM (emission λmax), RNA / EX (excitation λmax), RNA / ΦF RNA (quantum yield) / ε RNA (extinction coefficient): RNA 200 μg/mL; for ΦF RNA (quantum yield) / ε RNA (extinction coefficient): TE buffer pH 7.5, dye 5 μM for E36, 10 μM for E144 and F22; for ΦF RNA/ΦF free: ratio of quantum yields with RNA 200 μg/mL and free. Type of data set: binding. As for the experimental part:
(§1) The fluorescence spectra data in the primary screening and selected dyes titration assay study was obtained by Gemini XS plate reader. RNA solution was prepared right before the assay experiments to avoid possible degradation and contamination. In the primary screening, 1 mg/mL RNA (type VI from torula yeast) buffer solution was used. Point scans were carried out first using five Ex/Em point sets ([…], 400/500, 450/550, 500/600, 550/650 nm). Spectra scans were then carried out for the selected dyes. Excitation wavelengths were set at 350 nm, 400 nm, 450 nm, 500 nm, and 550 nm and the emission wavelengths were scanned. RNA (16S- and 23S-ribosomal from E. coli) and DNA (salmon testes) titration experiments and quantum yield/extinction coefficient determination for the three best dyes were carried out by the plate reader as well. Excitation λmax obtained from F-2500 Hitachi Fluorophotometer was used. Absorbance wavelength was determined by SpectraMax Plus^384 absorbance plate reader. […] was chosen as standard and 480 nm was used as excitation wavelength in the scanning for quantum yield determination. […] Generally, the λmax (nm) of emission was determined by scanning a fixed excitation first, and the μmax (nm) of excitation was determined by scanning emission spectrum with a fixed μem (nm). The detailed fluorescent properties of three selected dyes including; excitation/emission μmax, the quantum yield and extinction coefficient of both free dye solution and dye-RNA solution were assessed (Table 5).

Data set [2] deals with 3T3 fibroblast cells, 3T3-L1 adipocyte cells, Hela cells and A549 human lung carcinoma cells. Description: Secondary screening: live cell nuclear imaging properties in four cell lines. The format is cell-based, mouse. The settings on record: dye 25 μM. The method, then:
All cell staining imaging followed the same procedure. Generally, dyes in dry state were first dissolved in DMSO to obtain the stock solution. The stock solutions were then added directly to the cell culture wells to reach the desired concentration. Total DMSO was lower than 0.1%. After adding dyes, cells were incubated at 37° C. in 5% CO2 for 25 minutes. The medium was then removed and cells were rinsed with fresh medium twice. The cells were then imaged at ambient temperature in the medium. Exposure time was kept less than 5 seconds and adjusted to each dye.
The selected compounds from both primary screens (total 88) were resynthesized in large scale and purified. The compounds' live cell nuclear imaging properties were then tested by four cell lines, including two mouse cell lines: 3T3 fibroblast cells and 3T3-L1 adipocyte cells; and two human cancer cell lines: Hela cells and A549 human lung carcinoma cells. Herein, the final dye concentration in each test was decreased to 25 μM and all the experiments were repeated to establish reproducibility. […] Each of the three dyes contained at least one high affinity nucleic acid functional group (Trotta et al., “Solution Structure of DAPI Selectively Bound in the Minor Groove of a DNA T-T Mismatch-Containing Site: NMR and Molecular Dynamics Studies,” Nucleic Acids Res. 26:4706-4713 (1998); Loontiens et al., “Binding Characteristics of Hoechst 33258 with Calf Thymus DNA, Poly[d(A-T)], and d(CCGGAATTCCGG): Multiple Stoichiometries and Determination of Tight Binding with a Wide Spectrum of Site Affinities,” Biochem. 29:9029-9039 (1990); Zipper et al., “Investigations on DNA Intercalation and Surface Binding by SYBR Green I, Its Structure Determination and Methodological Implications,” Nucleic Acid Res. 32:E103 (2004); Glazer et al., “Stable Dye-DNA Intercalation Complexes as Reagents for High-Sensitivity Fluorescence Detection,” Nature 359:859-861 (1992), which are hereby incorporated by reference in their entirety) in building block II such as the terminal secondary amine for F22 and F112, the trimethoxy for E 144, and the indole for E36.

A short description of data set [3]: Fluorescent properties of free dye solution. The format is physicochemical. Particulars: for EM (emission λmax), Buffer / EX (excitation λmax), Buffer: TE buffer pH 7.5, dye 5 μM; for ε free (extinction coefficient) / ΦF free (quantum yield): TE buffer pH 7.5, dye 5 μM for E36, 10 μM for E144 and F22; for ΦF free (quantum yield): Rhodamine 6G standard. As for the experimental part:
as §1

Turning to `COc1cc(OC)c(/C=C/c2ccc3ccccc3[n+]2C)c(OC)c1` [Dye E144], the “Cytotoxicity (toxic = greater than 50% cell death)” value with 3T3 cells (20, 13.5, 10 and 5 μM, 5, 15 or 24 hours) is reported as “non-toxic”. Moreover, in data set [1], the “EM (emission λmax), RNA” value was found to be 532 nm; the “EX (excitation λmax), RNA” value is 456 nm; the “ΦF RNA (quantum yield)” value came to 0.0310; the “ε RNA (extinction coefficient)” value is 14600 M⁻¹ cm⁻¹. Besides, the “ΦF RNA/ΦF free” value in data set [1] was 5.5. Further, in data set [2], the “Live cell nuclear imaging properties (basis of selection)” value is “selective nucleolar targeting, high fluorescence intensity, low photobleaching, and low cellular toxicity”. For the same molecule, in data set [3], the “EM (emission λmax), Buffer” value was determined as 532 nm; the “EX (excitation λmax), Buffer” value turned out to be 440 nm; the “ε free (extinction coefficient)” value was 13200 M⁻¹ cm⁻¹; the “ΦF free (quantum yield)” value is on record as 0.0056.

As for `C[n+]1c(/C=C/c2c[nH]c3ccccc23)ccc2ccccc21` [Dye E36], in the data set with 3T3 cells (20 μM, 24 hours incubation), the “Cytotoxicity (toxic = greater than 50% cell death)” value is reported as “toxic”. In data set [1], the “EM (emission λmax), RNA” value is given as 548 nm; the “EX (excitation λmax), RNA” value is 497 nm; the “ΦF RNA (quantum yield)” value is on record as 0.1041; the “ε RNA (extinction coefficient)” value stood at 43100 M⁻¹ cm⁻¹. The “ΦF RNA/ΦF free” value in data set [1] came out at 54.6. Moreover, the “Live cell nuclear imaging properties (basis of selection)” value in data set [2] is “selective nucleolar targeting, high fluorescence intensity, low photobleaching, and low cellular toxicity”. Further, in data set [3], the “EM (emission λmax), Buffer” value was 541 nm; the “EX (excitation λmax), Buffer” value is recorded as 457 nm; the “ε free (extinction coefficient)” value amounted to 39400 M⁻¹ cm⁻¹; the “ΦF free (quantum yield)” value was 0.0019.

As for `COc1ccc2c(ccc(/C=C/c3ccc(N(C)C)cc3)[n+]2C)c1` [Dye F22], the “Cytotoxicity (toxic = greater than 50% cell death)” value in the data set on 3T3 cells (20 μM, 15 hours incubation) is given as “toxic”. In addition, in data set [1], the “EM (emission λmax), RNA” value is 620 nm; the “EX (excitation λmax), RNA” value was determined as 548 nm; the “ΦF RNA (quantum yield)” value was found to be 0.0075; the “ε RNA (extinction coefficient)” value stood at 20000 M⁻¹ cm⁻¹. The “ΦF RNA/ΦF free” value in data set [1] is recorded as 10.7. In addition, the “Live cell nuclear imaging properties (basis of selection)” value in data set [2] was “selective nucleolar targeting, high fluorescence intensity, low photobleaching, and low cellular toxicity”. For the same molecule, in data set [3], the “EM (emission λmax), Buffer” value is recorded as 598 nm; the “EX (excitation λmax), Buffer” value is on record as 492 nm; the “ε free (extinction coefficient)” value stood at 17400 M⁻¹ cm⁻¹; the “ΦF free (quantum yield)” value was 0.0007.
